Results: publication PMC10707934, “Design and Synthesis of Novel α-Methylchalcone Derivatives, Anti-Cervical Cancer Activity, and Reversal of Drug Resistance in HeLa/DDP Cells” (Molecules, 2023)

Tests used:
Assay type in all cases: cell-based, human
SiHa cells = experiment: MTT anti-proliferation assay, SiHa; settings: 48 h, mean ± SD
Procedure: (§1) All cell types, at a volume of 200 µL per well, were inoculated in 96-well plates at a density of 2.5 × 10^4 cells / mL and cultured for 24 h in an incubator with 5% CO2 at 37 °C. The old culture medium was replaced with 200 µL of fresh medium per well containing positive compounds, at concentrations of 1, 6.25, 12.5, 25, 50, and 100 μM. After 48 h of culture, 20 µL per well of 5 mg·mL^−1 MTT solution was added. After 4 h of culture, the old solution was discarded, and 150 µL per well of DMSO solution was added. Using an enzyme labeler (Thermo Fisher Scientific, Multiskan GO, Waltham, MA, USA), the plates were shaken for 10 min, OD values were determined at 490 nm, and the inhibition rate was calculated. Non-linear regression fitting of the cell growth rate was carried out using SPSS 23.0, and the IC50 of the compound was calculated. The inhibition rate was calculated using the formula: [(ODempty − ODtest)/(ODempty − ODnegative group)] × 100%, (ODempty blank group absorbance, ODtest absorbance of administration group, ODnegative group without cell culture medium). Each group contained six compound holes, and the experimental results averaged three trials. Complete medium containing only cells was used as the blank control; a complete medium without cells as was used as the negative control; and cisplatin, paclitaxel, and adriamycin were used as the positive controls. The concentration gradient was the same as that used for compounds 3a–3p.

C33A cells = experiment: MTT anti-proliferation assay, C33A; settings: 48 h, mean ± SD
Procedure: as §1

HeLa/DDP cells [1] = experiment: MTT anti-cisplatin-resistant cervical cancer activity, HeLa/DDP; settings: for resistance index (RI): HeLa/DDP versus parental HeLa; for resistance index (RI) / IC50: 48 h; for IC50: HeLa/DDP, MTT, mean ± SD
HeLa cells [2] = experiment: Annexin V-FITC/PI pro-apoptosis assay, HeLa; settings: 24 h
Procedure: (§2) Cell fluid (2 mL per well) at a concentration of 1.5 × 10^5 cells / mL was added to a 6-well plate and cultured in a cell incubator with 5% CO2 at 37 °C for 24 h. The old solution was discarded; 2 mL of the medium containing compound 3k was added to each well at a concentration gradient of 2.5, 5, and 10 μM; and the experiment was repeated three times at each concentration. Complete medium containing only cells was used as a blank control group, and 20 μM of cisplatin injection and chalcone was used as a positive control. Cells were harvested following a 24 h incubation period, adhering to the guidelines provided with the BD kit (BD Biosciences Pharmingen, 556547, 10975 Torreyana Road, San Diego, CA, USA). Subsequently, the cells were subjected to staining in a light-restricted environment at ambient temperature for a duration of 15 min, followed by filtration and analysis via flow cytometry.

HeLa/DDP cells [3] = experiment: Annexin V-FITC/PI pro-apoptosis assay, HeLa/DDP; settings: 24 h
Procedure: as §2
The pro-apoptotic experiments of compound 3k, cisplatin, and chalcone on HeLa/DDP were performed in the same way as in Section 3.3.3. Western Blotting Analysis in the same way as in Section 3.3.4.

HeLa cells [4] = experiment: Cell cycle experiment (PI flow cytometry), HeLa; settings: 24 h
Procedure: (§3) A 2 mL volume of cell fluid per well at a concentration of 1 × 10^6 cells / mL was inoculated into a 6-well plate and cultured for 24 h. After removing the old solution, 2 mL of the cell culture medium containing 3k was added to each well, and each well was exposed for 24 h to a concentration gradient of 2.5, 5, and 10 μM. The experiment was repeated three times for each concentration. Complete culture medium containing only cells was used as the blank control group, and 20 μM cisplatin and chalcone injection were used as the positive control group. After 24 h of treatment, the cells were collected in a 15 mL centrifuge tube and fixed with 75% ethanol at 4 °C for 24 h. A 400 µL volume of PI/RNase staining buffer (BD Biosciences Pharmingen, 550825, 10975 Torreyana Road, San Diego, CA, USA) was uniformly dispersed and subjected to staining for 15 min at room temperature […]. The sample was subsequently filtered and analyzed using up-flow cytometry (BD, LSRFortessa, New York, NY, USA).

HeLa/DDP cells [5] = experiment: Cell cycle experiment (PI flow cytometry), HeLa/DDP; settings: 24 h; for blocking rate at the G2/M phase: control 4.05%
Procedure: as §3
The experimental methods for the effect of compound 3k, cisplatin, and chalcone on the HeLa/DDP cell cycle were the same as in Section 3.3.5.

HeLa cells [6] = experiment: Transwell Matrigel invasion assay, HeLa
Procedure: (§4) The Transwell ([…], Corning Incorporated, New York, NY, USA) was precoated using 50 μL Matrigel for 5 h at 37 °C to achieve solidification. HeLa cells was collected and suspended in a serum-free medium containing varying concentrations (0, 2.5, 5, and 10 μM) of compound 3k, along with 20 μM cisplatin and chalcone. These cell suspensions were then added to the upper wells of a permeabilization chamber at a density of 5 × 10^5 cells/mL. In the lower wells, 600 μL of DMEM containing 10% FBS was added, which had been prepared using 50 μL of Matrigel (diluted 1:8 with serum-free medium from Corning/BD Biosciences). After 24 h of incubation at 37 °C, the invasion cells were fixed using 4% paraformaldehyde and stained using 0.1% crystal violet for 30 min. Then, the chambers were washed using PBS and left to dry. Images were photographed using an inverted fluorescence microscope (Leica Instruments Co., Ltd., Microsystems CMS GmbH, Weizler, Hesse, Germany) and counted using Image J software (V1.8.0.112) for three independent fields randomly.

HeLa/DDP cells [7] = experiment: Transwell Matrigel invasion assay, HeLa/DDP; settings: 24 h, control 399
Procedure: as §4
The experimental methods for the effects of compound 3k, cisplatin, and chalcone on HeLa/DDP cell invasion and migration were the same as in Section 3.3.6.

Structure (SMILES): N.N.[Cl][Pt][Cl] [Cisplatin, cisplatin, reference compound]
- IC50 (SiHa cells): 20.7 ± 1.85 µM
- IC50 (C33A cells): 6.05 ± 1.15 µM
- resistance index (RI) (HeLa/DDP cells [1]): 7.90
- IC50 (HeLa/DDP cells [1]): 103 ± 3.6 µM
- pro-apoptotic rate (HeLa cells [2]; 20 μM): 46.7%
- pro-apoptotic rate (HeLa/DDP cells [3]; 20 μM): 15.0%
- percentage of cells in the G0/G1 phase (HeLa cells [4]; 20 μM, control 52.1%): 73.93%
- percentage of cells in G0/G1 phase (HeLa/DDP cells [5]; 20 μM, control 57.03%): 65.07%
- number of cells undergoing invasion (HeLa cells [6]; 24 h, 20 μM): 237
- number of invasion cells (HeLa/DDP cells [7]; 20 μM): 301

Structure (SMILES): COc1ccc(/C=C(\C)C(=O)c2ccc(Cl)c(Cl)c2)cc1OC [Compound 3k, (E)-1-(3,4-Dichlorophenyl)-3-(3,4-dimethoxyphenyl)-2-methylprop-2-en-1-one]
- IC50 (SiHa cells; Homo sapiens): 14.5 ± 0.98 µM
- IC50 (C33A cells; Homo sapiens, C-33-A): 12.1 ± 2.44 µM
- resistance index (RI) (HeLa/DDP cells [1]): 1.07
- inhibition rate against HeLa/DDP cell lines (HeLa/DDP cells [1]; HeLa/DDP, 0.25, 0.5, or 1 μM): less than 10%
- IC50 (HeLa/DDP cells [1]; Homo sapiens): 9.72 ± 0.73 µM
- pro-apoptotic rate (HeLa cells [2]; 2.5 μM): 29.6%
- pro-apoptotic rate (HeLa cells [2]; 5 μM): 47.2%
- pro-apoptotic rate (HeLa cells [2]; 10 μM): 64.8%
- pro-apoptotic rate (HeLa/DDP cells [3]; 2.5 μM): 36.7%
- pro-apoptotic rate (HeLa/DDP cells [3]; 5 μM): 46.3%
- pro-apoptotic rate (HeLa/DDP cells [3]; 10 μM): 63.7%
- blocking rate at the G2/M phase (HeLa cells [4]; 2.5 μM): 14.04%
- blocking rate at the G2/M phase (HeLa cells [4]; 5 μM): 22.84%
- blocking rate at the G2/M phase (HeLa cells [4]; 10 μM): 40.18%
- blocking rate at the G2/M phase (HeLa/DDP cells [5]; 2.5 μM): 14.71%
- blocking rate at the G2/M phase (HeLa/DDP cells [5]; 5 μM): 22.85%
- blocking rate at the G2/M phase (HeLa/DDP cells [5]; 10 μM): 52.72%
- number of cells undergoing invasion compared to the control group (HeLa cells [6]; 24 h, 2.5, 5, and 10 μM): significant decrease in the number of cells undergoing invasion
- number of invasion cells (HeLa/DDP cells [7]; 2.5 μM): 293
- number of invasion cells (HeLa/DDP cells [7]; 5 μM): 237
- number of invasion cells (HeLa/DDP cells [7]; 10 μM): 90
